Literature values as cited in patent US20200129574A1 (priority 2018, published 2020).

Assays:
[1] = test system: several tumor cell types, including prostate cancer cell lines, and primary prostate tumor lines; conditions: several tumor cell types incl. prostate cancer cell lines and primary prostate tumor lines
prostate cancer cells = conditions: in vitro

Vitamin D
effect on proliferation and differentiation of tumor cells [1]: inhibit proliferation and promote differentiation | effect on invasion of prostate cancer cells (prostate cancer cells): decrease invasion | expression of a6 and 134 integrins (a6 and 134 integrins): decreased expression
